Measured values taken from patent publication US9708311B2, “Benzimidazole derivatives as EP4 antagonists” (BAYER PHARMA AKTIENGESELLSCHAFT, priority 2012, dated 2017).
pIC50: −log10 of the molar value.

Each compound was assayed against human EP4 receptor (Homo sapiens (Human), UniProt P35408) (assay: Test for antagonism of the human EP4 receptor signal (cAMP HTRF)). Settings: cells expressing hEP4, PGE2 at EC80 (0.4 nM), cAMP TR-FRET; read-out: Antagonism hEP4 IC50.
Assay type: cell-based
Text: The binding of the agonist prostaglandin E2 (PGE2) to the EP4 subtype of human hPGE2-R (hEP4-R) induces the activation of membrane-bound adenylate cyclases and thus the formation of cAMP. In the presence of the phosphodiesterase inhibitor IBMX, this cAMP accumulates intracellularly and is employed in a competitive detection procedure after cell lysis. In this procedure, it competes with a fluorescence-labelled cAMP (cAMP-d2) for binding to an Eu cryptate-labelled anti-cAMP antibody. In the absence of cellular cAMP, a complex is formed between the Eu cryptate-labelled anti-cAMP antibody and the cAMP-d2 molecule, which after excitation at 337 nm makes possible an energy transfer based on FRET (fluorescence resonance energy transfer) to the cAMP-d2 tracer and leads to a long-lasting fluorescence signal (emission at 665 and 620 nm). This signal is time-resolved, i.e. measured in a suitable measuring apparatus after decay of the background fluorescence (time resolved; TR-FRET). The wave ratio determination (emission 665 nm/emission 620 nm*10000) moreover makes it possible to standardize individual measurement differences in the added amounts of the detection reagents.
By means of prostaglandin E2 administration and increase in the intracellular cAMP, a lowering of the FRET signal occurs, which in the case of an antagonistic substance action increases again.
A further 20 min at room temperature later, the cell lysate is measured according to the manufacturer's instructions in a TR-FRET-suitable measuring apparatus (compare cAMP HTRF assay kit: Cisbio International 62AM6PEJ high range)

human EP4 receptor, sequence (P35408 whole entry): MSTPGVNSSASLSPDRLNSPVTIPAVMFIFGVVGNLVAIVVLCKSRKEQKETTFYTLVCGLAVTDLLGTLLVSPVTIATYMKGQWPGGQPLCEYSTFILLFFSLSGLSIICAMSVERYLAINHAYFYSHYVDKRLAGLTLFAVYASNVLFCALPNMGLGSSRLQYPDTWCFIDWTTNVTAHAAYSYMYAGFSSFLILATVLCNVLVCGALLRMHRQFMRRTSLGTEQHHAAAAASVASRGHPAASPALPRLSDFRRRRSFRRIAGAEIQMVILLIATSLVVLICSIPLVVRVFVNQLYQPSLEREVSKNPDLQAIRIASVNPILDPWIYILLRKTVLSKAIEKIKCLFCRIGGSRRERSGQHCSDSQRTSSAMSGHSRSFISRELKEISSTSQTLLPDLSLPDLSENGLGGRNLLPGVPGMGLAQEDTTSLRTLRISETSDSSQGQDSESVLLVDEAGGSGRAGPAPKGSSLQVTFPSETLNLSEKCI

SMILES	pIC50
CCn1c2ccccc2c2cc(-c3nc4cc(C(=O)O)ccc4n3CCS(C)(=O)=O)ccc21 [Example 136, 2-(9-Ethyl-9H-carbazol-3-yl)-1-[2-(methylsulphonyl)ethyl]-1H-benzimidazole-5-carboxylic acid]	6.49
CCn1c2ccccc2c2cc(-c3nc4c(C)c(C(=O)O)ccc4n3CC3CC3)ccc21 [Example 9, 1-(Cyclopropylmethyl)-2-(9-ethyl-9H-carbazol-3-yl)-4-methyl-1H-benzimidazole-5-carboxylic acid]	7.15
CCn1c2ccccc2c2cc(-c3nc4cc(C(=O)NS(=O)(=O)Cc5ccc(C(F)(F)F)cc5)ccc4n3CCOC)ccc21 [Example 62, 2-(9-Ethyl-9H-carbazol-3-yl)-1-(2-methoxyethyl)-N-{[4-(trifluoromethyl)benzyl]sulphonyl}-1H-benzimidazole-5-carboxamide]	6.73
CCn1c2ccccc2c2cc(-c3nc4cc(C(=O)N5CCOCC5)ccc4n3CCOC)ccc21 [Example 81, [2-(9-Ethyl-9H-carbazol-3-yl)-1-(2-methoxyethyl)-1H-benzimidazol-5-yl](morpholin-4-yl)-methanone]	6.91
C=CCn1c2ccccc2c2cc(-c3nc4cc(C(=O)O)ccc4n3CC3CC3)ccc21 [Example 33, 2-(9-Allyl-9H-carbazol-3-yl)-1-(cyclopropylmethyl)-1H-benzimidazole-5-carboxylic acid]	7.54
CCn1c2ccccc2c2cc(-c3nc4cc(C(=O)O)ccc4n3CC3CC3(C)C)ccc21 (centres unmarked) [Example 121, 1-[(2,2-Dimethylcyclopropyl)methyl]-2-(9-ethyl-9H-carbazol-3-yl)-1H-benzimidazole-5-carboxylic acid]	7.00
CCn1c2ccccc2c2cc(-c3nc4cc(C(=O)NS(=O)(=O)C(C)(C)C)ccc4n3CCOC)ccc21 [Example 39, N-(tert-Butylsulphonyl)-2-(9-ethyl-9H-carbazol-3-yl)-1-(2-methoxyethyl)-1H-benzimidazole-5-carboxamide]	6.11
CCn1c2ccccc2c2cc(-c3nc4c(Cl)c(C(=O)O)ccc4n3CC3CC3)ccc21 [Example 8, 4-Chloro-1-(cyclopropylmethyl)-2-(9-ethyl-9H-carbazol-3-yl)-1H-benzimidazole-5-carboxylic acid]	7.71
CCn1c2ccccc2c2cc(-c3nc4cc(C(=O)O)ccc4n3CC3CCO3)ccc21 (centres unmarked) [Example 132, 2-(9-Ethyl-9H-carbazol-3-yl)-1-(oxetan-2-ylmethyl)-1H-benzimidazole-5-carboxylic acid]	7.61
CCn1c2ccccc2c2cc(-c3nc4cc(C(=O)NS(=O)(=O)c5ccccc5OC)ccc4n3CCOC)ccc21 [Example 52, 2-(9-Ethyl-9H-carbazol-3-yl)-1-(2-methoxyethyl)-N-[(2-methoxyphenyl)sulphonyl]-1H-benzimidazole-5-carboxamide]	7.44
CCn1c2ccccc2c2cc(-c3nc4cc(C(=O)NS(=O)(=O)C5CC5)ccc4n3CCN(C)C)ccc21 [Example 74, N-(Cyclopropylsulphonyl)-1-[2-(dimethylamino)ethyl]-2-(9-ethyl-9H-carbazol-3-yl)-1H-benzimidazole-5-carboxamide]	7.06
CCn1c2ccccc2c2cc(-c3nc4cc(C(=O)NS(=O)(=O)CCOC)ccc4n3CCOC)ccc21 [Example 59, 2-(9-Ethyl-9H-carbazol-3-yl)-1-(2-methoxyethyl)-N-[(2-methoxyethyl)sulphonyl]-1H-benzimidazole-5-carboxamide]	7.77
CCn1c2ccccc2c2cc(-c3nc4cc(C(=O)O)ccc4n3CC3COC3)ccc21 [Example 123, 2-(9-Ethyl-9H-carbazol-3-yl)-1-(oxetan-3-ylmethyl)-1H-benzimidazole-5-carboxylic acid]	7.29
C=CCn1c(-c2ccc3c(c2)c2ccccc2n3CC)nc2cc(C(N)=O)ccc21 [Example 89, 1-Allyl-2-(9-ethyl-9H-carbazol-3-yl)-1H-benzimidazole-5-carboxamide]	5.44
CCn1c2ccccc2c2cc(-c3nc4cc(C(=O)NC)ccc4n3CCOC)ccc21 [Example 41, 2-(9-Ethyl-9H-carbazol-3-yl)-1-(2-methoxyethyl)-N-methyl-1H-benzimidazole-5-carboxamide]	7.01
CCn1c2ccccc2c2cc(-c3nc4cc(C(=O)NS(=O)(=O)C5(C)CC5)ccc4n3CCOC)ccc21 [Example 40, 2-(9-Ethyl-9H-carbazol-3-yl)-1-(2-methoxyethyl)-N-[(1-methylcyclopropyl)sulphonyl]-1H-benzimidazole-5-carboxamide]	7.11

SMILES	pIC50
CCn1c2ccccc2c2cc(-c3nc4cc(C(=O)NS(=O)(=O)c5ccc(Cl)cc5)ccc4n3CCOC)ccc21 [Example 49, N-[(4-Chlorophenyl)sulphonyl]-2-(9-ethyl-9H-carbazol-3-yl)-1-(2-methoxyethyl)-1H-benzimidazole-5-carboxamide]	7.21
CCn1c2ccccc2c2cc(-c3nc4cc(C(=O)NS(=O)(=O)CCc5cccc(OC)c5)ccc4n3CCOC)ccc21 [Example 69, 2-(9-Ethyl-9H-carbazol-3-yl)-1-(2-methoxyethyl)-N-{[2-(3-methoxyphenyl)ethyl]-sulphonyl}-1H-benzimidazole-5-carboxamide]	6.81
CCn1c2ccc(Cl)cc2c2cc(-c3nc4c(C)c(C(=O)O)ccc4n3CCOC)ccc21 [Example 142, 2-(6-Chloro-9-ethyl-9H-carbazol-3-yl)-1-(2-methoxyethyl)-4-methyl-1H-benzimidazole-5-carboxylic acid]	8.38
CCn1c2ccccc2c2cc(-c3nc4cc(C(=O)NS(=O)(=O)c5ccc(C)cc5)ccc4n3CCOC)ccc21 [Example 48, 2-(9-Ethyl-9H-carbazol-3-yl)-1-(2-methoxyethyl)-N-[(4-methylphenyl)sulphonyl]-1H-benzimidazole-5-carboxamide]	7.00
CCn1c2ccccc2c2cc(-c3nc4cc(C(=O)OC)ccc4n3CCOC)ccc21 [Example 3, Methyl 2-(9-ethyl-9H-carbazol-3-yl)-1-(2-methoxyethyl)-1H-benzimidazole-5-carboxylate]	6.76
CCn1c2ccccc2c2cc(-c3nc4cc(C(=O)NS(=O)(=O)CCc5cccc(Cl)c5)ccc4n3CCOC)ccc21 [Example 56, N-{[2-(3-Chlorophenyl)ethyl]sulphonyl}-2-(9-ethyl-9H-carbazol-3-yl)-1-(2-methoxyethyl)-1H-benzimidazole-5-carboxamide]	6.62
CCn1c2ccccc2c2cc(-c3nc4cc(C(=O)O)ccc4n3CC(O)C3CC3)ccc21 (centres unmarked) [Example 137, 1-(2-Cyclopropyl-2-hydroxyethyl)-2-(9-ethyl-9H-carbazol-3-yl)-1H-benzimidazole-5-carboxylic acid]	7.73
CCn1c2ccc(-c3nc4cc(C(=O)O)ccc4n3CCOC)cc2c2c(F)cccc21 [Example 11, 2-(9-Ethyl-5-fluoro-9H-carbazol-3-yl)-1-(2-methoxyethyl)-1H-benzimidazole-5-carboxylic acid]	8.20
C=CCn1c2ccccc2c2cc(-c3nc4cc(C(=O)O)ccc4n3CCOC)ccc21 [Example 96, 2-(9-Allyl-9H-carbazol-3-yl)-1-(2-methoxyethyl)-1H-benzimidazole-5-carboxylic acid]	7.78
CCn1c2ccccc2c2cc(-c3nc4cc(C(=O)NS(=O)(=O)Cc5ncccc5C)ccc4n3CCOC)ccc21 [Example 68, 2-(9-Ethyl-9H-carbazol-3-yl)-1-(2-methoxyethyl)-N-{[(3-methylpyridin-2-yl)methyl]-sulphonyl}-1H-benzimidazole-5-carboxamide]	7.44
CCn1c2ccccc2c2cc(-c3nc4cc(C(=O)NC)ccc4n3C)ccc21 [Example 90, 2-(9-Ethyl-9H-carbazol-3-yl)-N,1-dimethyl-1H-benzimidazole-5-carboxamide]	5.54
CCn1c2ccccc2c2cc(-c3nc4cc(C(=O)NCC(F)(F)F)ccc4n3CC3CC3)ccc21 [Example 27, 1-(Cyclopropylmethyl)-2-(9-ethyl-9H-carbazol-3-yl)-N-(2,2,2-trifluoroethyl)-1H-benzimidazole-5-carboxamide]	6.93
O=C(O)c1ccc2c(c1)nc(-c1ccc3c(c1)c1ccccc1n3CC1CCC1)n2CC1CC1 [Example 125, 2-[9-(Cyclobutylmethyl)-9H-carbazol-3-yl]-1-(cyclopropylmethyl)-1H-benzimidazole-5-carboxylic acid]	6.59
CCn1c2ccccc2c2cc(-c3nc4cc(C(N)=O)ccc4n3CC3CC3)ccc21 [Example 26, 1-(Cyclopropylmethyl)-2-(9-ethyl-9H-carbazol-3-yl)-1H-benzimidazole-5-carboxamide]	6.75
CCn1c2ccc(-c3nc4cc(C(=O)O)ccc4n3CC3CC3)cc2c2ccncc21 [Example 108, 1-(Cyclopropylmethyl)-2-(9-ethyl-9H-beta-carbolin-6-yl)-1H-benzimidazole-5-carboxylic acid]	6.92
CCn1c2ccccc2c2cc(-c3nc4cc(C(=O)O)c(F)cc4n3CC3CC3)ccc21 [Example 112, 1-(Cyclopropylmethyl)-2-(9-ethyl-9H-carbazol-3-yl)-6-fluoro-1H-benzimidazole-5-carboxylic acid]	7.46
